Experimental findings from ChEMBL document CHEMBL5236554 (J Med Chem, 2021) are described below.

Series [1] deals with Neurolysin, mitochondrial (Rattus norvegicus, UniProt P42676). The series is described as follows: Activation of recombinant rat Neurolysin using QFS as substrate incubated for 10 mins.
A short description of series [2]: Permeability coefficient across apical to basolateral side in mouse BEND3 cells co-cultured with mouse primary astrocytes incubated for 120 mins by LC-MS/MS analysis. Format: ADME, cell-based. The conditions noted are these: bend3, 2 h.
Series [3] is described as follows: Metabolic stability in mouse brain homogenate assessed as half life measured upto 240 mins by LC-MS/MS analysis. To be noted: 4 h. Format: ADME, tissue-based.
Series [4] in a line: Metabolic stability in mouse plasma assessed as half life measured upto 240 mins by LC-MS/MS analysis. Format: ADME, cell-free.
Series [5] deals with Angiotensin-converting enzyme 2 (Homo sapiens) (UniProt Q9BYF1). Briefly: Inhibition of recombinant human ACE2 catalytic activity at 300 uM using Mca-Ala-Pro-Lys-(Dnp)-OH as substrate.
For series [6], the target named is Thimet oligopeptidase (Homo sapiens) (UniProt P52888). Briefly: Inhibition of recombinant human THOP catalytic activity using Mca-Pro-Leu-Gly-Pro-D-Lys(DNP)-OH as substrate.
Series [7] has as its target Neprilysin (Homo sapiens) (UniProt P08473). Briefly: Inhibition of recombinant human NEP catalytic activity using Mca-Arg-Pro-Pro-Gly-Phe-Ser-Ala-Phe-Lys(Dnp)-OH as substrate.
Series [8] addresses Angiotensin-converting enzyme (Homo sapiens) (UniProt P12821). Briefly: Inhibition of recombinant human ACE catalytic activity measured up to 150 uM.

The source made the active and inactive calls. The calls are words filed in the database; no cut-off is given here. Square brackets hold non-standard residues; d marks the D form. Peptide text beside a SMILES is read from it. * marks the point of attachment. Boc = CC(C)(C)OC(=O)* A value given as a limit tells only on which side of the number the result lay.

Neurolysin, mitochondrial, sequence (P42676 whole entry): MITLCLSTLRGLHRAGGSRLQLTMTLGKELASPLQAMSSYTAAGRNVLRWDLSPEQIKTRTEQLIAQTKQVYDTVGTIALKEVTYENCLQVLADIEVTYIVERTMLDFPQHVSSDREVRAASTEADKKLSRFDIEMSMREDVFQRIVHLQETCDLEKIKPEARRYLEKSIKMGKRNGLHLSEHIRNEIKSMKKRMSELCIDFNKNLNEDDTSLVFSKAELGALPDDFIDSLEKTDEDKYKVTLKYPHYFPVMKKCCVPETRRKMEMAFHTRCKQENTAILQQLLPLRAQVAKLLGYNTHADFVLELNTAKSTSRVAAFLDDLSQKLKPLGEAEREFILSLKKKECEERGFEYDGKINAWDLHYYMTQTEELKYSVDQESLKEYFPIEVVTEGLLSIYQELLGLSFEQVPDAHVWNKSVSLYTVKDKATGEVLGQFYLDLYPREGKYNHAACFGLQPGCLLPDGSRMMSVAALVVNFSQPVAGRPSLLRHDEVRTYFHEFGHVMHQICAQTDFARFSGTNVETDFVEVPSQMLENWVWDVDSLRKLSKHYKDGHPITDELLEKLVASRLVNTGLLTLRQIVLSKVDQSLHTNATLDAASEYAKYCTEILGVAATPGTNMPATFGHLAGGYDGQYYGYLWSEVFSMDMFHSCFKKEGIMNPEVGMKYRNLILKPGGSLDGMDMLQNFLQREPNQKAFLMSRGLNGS
Angiotensin-converting enzyme 2 (Homo sapiens), sequence (Q9BYF1 18-805 limits assumed): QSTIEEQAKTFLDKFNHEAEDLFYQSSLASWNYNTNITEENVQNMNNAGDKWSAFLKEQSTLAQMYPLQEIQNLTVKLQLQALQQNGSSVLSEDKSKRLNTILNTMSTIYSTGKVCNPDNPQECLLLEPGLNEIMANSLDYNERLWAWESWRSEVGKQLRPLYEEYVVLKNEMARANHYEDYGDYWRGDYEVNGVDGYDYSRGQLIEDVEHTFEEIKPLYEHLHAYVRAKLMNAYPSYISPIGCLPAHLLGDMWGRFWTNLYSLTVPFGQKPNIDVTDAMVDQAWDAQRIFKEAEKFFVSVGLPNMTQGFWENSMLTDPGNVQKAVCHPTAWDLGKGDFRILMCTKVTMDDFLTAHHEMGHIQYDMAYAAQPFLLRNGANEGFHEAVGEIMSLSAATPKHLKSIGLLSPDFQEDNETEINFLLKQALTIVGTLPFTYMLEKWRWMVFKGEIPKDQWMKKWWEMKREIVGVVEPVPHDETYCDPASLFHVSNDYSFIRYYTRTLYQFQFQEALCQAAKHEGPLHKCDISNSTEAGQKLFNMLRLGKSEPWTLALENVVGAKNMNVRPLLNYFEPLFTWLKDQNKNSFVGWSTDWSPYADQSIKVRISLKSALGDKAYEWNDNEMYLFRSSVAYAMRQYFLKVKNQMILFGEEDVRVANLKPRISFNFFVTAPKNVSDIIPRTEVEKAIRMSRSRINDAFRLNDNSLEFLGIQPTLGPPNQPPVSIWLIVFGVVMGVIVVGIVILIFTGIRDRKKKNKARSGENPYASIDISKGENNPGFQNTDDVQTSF
Angiotensin-converting enzyme (Homo sapiens), sequence (P12821 whole entry): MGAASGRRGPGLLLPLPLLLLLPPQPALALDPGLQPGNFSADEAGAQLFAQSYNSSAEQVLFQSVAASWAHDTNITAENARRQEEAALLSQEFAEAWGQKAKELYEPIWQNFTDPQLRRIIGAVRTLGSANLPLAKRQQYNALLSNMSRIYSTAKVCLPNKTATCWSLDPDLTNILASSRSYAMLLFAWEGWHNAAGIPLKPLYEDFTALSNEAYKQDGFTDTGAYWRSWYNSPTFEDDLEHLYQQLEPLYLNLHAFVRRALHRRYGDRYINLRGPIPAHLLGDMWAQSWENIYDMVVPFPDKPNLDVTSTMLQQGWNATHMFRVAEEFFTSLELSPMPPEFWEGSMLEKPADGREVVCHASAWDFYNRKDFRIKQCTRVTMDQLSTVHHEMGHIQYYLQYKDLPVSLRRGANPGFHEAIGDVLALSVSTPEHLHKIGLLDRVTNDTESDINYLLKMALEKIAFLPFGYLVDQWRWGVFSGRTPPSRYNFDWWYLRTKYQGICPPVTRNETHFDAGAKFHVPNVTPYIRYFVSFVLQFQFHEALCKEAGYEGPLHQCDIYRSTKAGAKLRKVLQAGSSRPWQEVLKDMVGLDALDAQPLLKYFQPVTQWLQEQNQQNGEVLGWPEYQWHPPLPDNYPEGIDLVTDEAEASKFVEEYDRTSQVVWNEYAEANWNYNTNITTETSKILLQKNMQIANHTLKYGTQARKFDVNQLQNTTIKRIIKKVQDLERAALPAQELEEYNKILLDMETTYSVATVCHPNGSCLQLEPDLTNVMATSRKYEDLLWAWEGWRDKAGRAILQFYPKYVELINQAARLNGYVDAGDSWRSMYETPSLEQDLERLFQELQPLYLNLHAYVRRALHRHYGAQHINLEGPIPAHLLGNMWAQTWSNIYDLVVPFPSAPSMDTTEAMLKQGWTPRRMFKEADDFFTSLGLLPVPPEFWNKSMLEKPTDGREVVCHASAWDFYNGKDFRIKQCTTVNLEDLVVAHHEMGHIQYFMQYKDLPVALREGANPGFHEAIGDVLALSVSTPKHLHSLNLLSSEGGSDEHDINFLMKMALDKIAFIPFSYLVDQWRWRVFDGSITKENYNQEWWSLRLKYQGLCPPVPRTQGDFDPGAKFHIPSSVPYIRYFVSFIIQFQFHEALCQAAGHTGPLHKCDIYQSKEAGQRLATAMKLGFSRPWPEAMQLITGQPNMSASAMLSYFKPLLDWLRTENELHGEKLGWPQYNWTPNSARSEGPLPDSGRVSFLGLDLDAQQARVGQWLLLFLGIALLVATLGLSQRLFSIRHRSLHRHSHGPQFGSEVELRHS
Thimet oligopeptidase (Homo sapiens), sequence (P52888 whole entry): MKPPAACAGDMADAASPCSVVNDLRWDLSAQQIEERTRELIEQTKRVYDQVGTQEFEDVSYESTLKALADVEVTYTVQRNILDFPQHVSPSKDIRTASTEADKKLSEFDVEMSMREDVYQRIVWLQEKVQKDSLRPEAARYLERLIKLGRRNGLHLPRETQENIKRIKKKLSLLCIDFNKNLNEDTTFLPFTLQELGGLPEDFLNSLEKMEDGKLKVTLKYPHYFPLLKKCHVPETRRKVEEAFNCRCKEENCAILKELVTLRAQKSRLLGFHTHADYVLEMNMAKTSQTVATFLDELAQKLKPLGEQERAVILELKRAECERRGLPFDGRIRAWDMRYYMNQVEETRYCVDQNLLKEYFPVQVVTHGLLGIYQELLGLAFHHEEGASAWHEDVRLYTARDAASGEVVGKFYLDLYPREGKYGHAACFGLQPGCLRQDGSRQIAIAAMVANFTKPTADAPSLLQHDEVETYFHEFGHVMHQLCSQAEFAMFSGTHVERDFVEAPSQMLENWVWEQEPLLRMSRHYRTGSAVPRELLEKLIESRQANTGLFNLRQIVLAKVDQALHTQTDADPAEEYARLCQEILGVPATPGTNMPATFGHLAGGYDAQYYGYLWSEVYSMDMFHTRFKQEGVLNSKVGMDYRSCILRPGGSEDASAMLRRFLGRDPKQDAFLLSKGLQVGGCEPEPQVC
Neprilysin (Homo sapiens), sequence (P08473 whole entry): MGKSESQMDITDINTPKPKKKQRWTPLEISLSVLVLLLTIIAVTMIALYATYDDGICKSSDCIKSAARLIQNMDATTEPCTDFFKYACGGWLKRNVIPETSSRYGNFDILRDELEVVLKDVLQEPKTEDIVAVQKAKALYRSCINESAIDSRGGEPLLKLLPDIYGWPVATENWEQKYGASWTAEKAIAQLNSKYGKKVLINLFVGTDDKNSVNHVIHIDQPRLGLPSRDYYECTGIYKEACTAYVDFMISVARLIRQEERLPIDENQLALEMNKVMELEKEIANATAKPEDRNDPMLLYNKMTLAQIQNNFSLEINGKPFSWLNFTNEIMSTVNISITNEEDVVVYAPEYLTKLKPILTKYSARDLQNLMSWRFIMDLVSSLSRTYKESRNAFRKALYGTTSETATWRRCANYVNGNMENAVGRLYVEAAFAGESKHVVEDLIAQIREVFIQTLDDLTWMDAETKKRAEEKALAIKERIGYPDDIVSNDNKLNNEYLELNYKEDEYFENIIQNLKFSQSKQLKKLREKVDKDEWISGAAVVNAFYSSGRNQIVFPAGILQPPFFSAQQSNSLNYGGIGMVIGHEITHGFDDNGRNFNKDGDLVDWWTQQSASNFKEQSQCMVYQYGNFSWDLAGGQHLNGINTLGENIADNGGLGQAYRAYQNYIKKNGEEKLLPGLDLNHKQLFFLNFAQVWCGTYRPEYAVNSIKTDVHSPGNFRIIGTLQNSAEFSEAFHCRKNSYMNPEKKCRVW

As to `N[C@@H](Cc1c[nH]cn1)C(=O)N[C@@H](Cc1ccccc1)C(=O)O` (H-His-Phe-OH), the EC50 in series [1] (read-out: EC50) amounted to 74.5 µM.

For `N[C@@H](Cc1c[nH]cn1)C(=O)N[C@@H](Cc1ccc(O)cc1)C(=O)O` (H-His-Tyr-OH), in series [2], the Kp is listed as 0.21 10^-3cm/min. Further, the figures for the t1/2 in series [3] and in series [4] (4 h) were 1.03 min and 34.19 min, respectively.

In the case of `CC(C)(C)OC(=O)N[C@@H](Cc1ccc(O)cc1)C(=O)N[C@H](Cc1ccccc1)C(=O)O` (Boc-Tyr-[dF]-OH), the concentration giving a half-maximal response (EC50) result in series [1] was “Not Active”.

For the compound `N[C@@H](Cc1ccc(O)cc1)C(=O)N[C@H](Cc1c[nH]cn1)C(=O)O`, the EC50 result in series [1] was “Not Active”.

As to `N[C@@H](Cc1c[nH]cn1)C(=O)NCCc1ccc(F)cc1`, the EC50 in series [1] (read-out: EC50) stood at 11.6 µM.

Turning to `O=C(CCc1c[nH]cn1)NCCc1cc2ccccc2[nH]1`, in series [1], the EC50 result is reported as “Not Active”.

Take `NC(Cc1c[nH]cn1)C(=O)NCc1cccc2cccnc12` (racemic): the EC50 in series [1] (read-out: EC50) was determined as 5.8 µM.

For `N[C@@H](Cc1c[nH]cn1)C(=O)NCc1cccc2ccccc12`, the inhibition entry in series [5], in series [6], in series [7] and in series [8] was “inactive” each time. In series [2], the Kp is recorded as 1.09 10^-3cm/min. Also, in series [3], the t1/2 was 80.3 min. In series [4], the half-life was more than 1000 min.

For the compound `CC(C)(C)OC(=O)N[C@@H](Cc1c[nH]cn1)C(=O)NCCc1c[nH]c2ccccc12`, the EC50 entry in series [1] is reported as “Not Active”.
